Legend:
[1] = test system: Protease-activated receptor PAR; assay: dose response of GPCR activation in plasma membranes on immunostained WGA-beads (Gαq release); assay type: biochemical; conditions: plasma membranes of HEK cells on beads; different concentrations
Text: FIG. 3. Schematic representation of the synthetic GPCR screening platform. 1. […] 2. […] 3. […] This leads to fluorescence labeled Gα-protein subunits. 4. […] 5.

angiotensin receptor = conditions: plasma membranes of HEK cells on beads

Substance	receptor activation triggering release of Gαq [1]	receptor activation triggering release of Gαi (angiotensin receptor)
thrombin	activated by different concentrations	–
angiotensin	–	activated in a dose-dependent manner
